Patent publication US20190105367A1, “ANTIMICROBIAL 4-OXOQUINOLIZINES” (Emergent Product Development Gaithersburg Inc., priority 2011, published 2019)
Converted amounts (≈) assume the structure as drawn. Read-outs that look alike come from different tables or passages of the source.

How the values were obtained:
A. baumannii A14 [1] = test: MIC without and with sub-inhibitory polymyxin B (Example 4); assay type: cell-based, Acinetobacter baumannii; details: A. baumannii A14; +0.06 μg/ml PB; 2nd experiment
A. baumannii A387 = test: as above; assay type: cell-based, Acinetobacter baumannii; details: for MIC without PB/MIC + PB: A. baumannii A387
A. baumannii A472 = test: Preliminary MBC without and with sub-inhibitory polymyxin B (Example 4); assay type: cell-based, Acinetobacter baumannii; details: Acinetobacter baumannii, preliminary MBC
A. baumannii A14 [2] = test: as above; assay type: cell-based, Acinetobacter baumannii; details: A. baumannii A14; +0.06 μg/ml polymyxin B; preliminary MBC; 1st experiment
A. baumannii A390 [3] = test: MIC without and with sub-inhibitory polymyxin B (Example 4); assay type: cell-based, Acinetobacter baumannii; details: +0.06 μg/ml PB, 2nd experiment
A. baumannii A14 [4] = test: as above; assay type: cell-based, Acinetobacter baumannii; details: 1st experiment
A. baumannii ATCC 19606 [5] = test: as above; assay type: cell-based, Acinetobacter baumannii; details: for MIC without PB/MIC + PB: A. baumannii ATCC 19606; for MIC: Acinetobacter baumannii
A. baumannii ATCC 19606 [6] = test: Preliminary MBC without and with sub-inhibitory polymyxin B (Example 4); assay type: cell-based, Acinetobacter baumannii; details: Acinetobacter baumannii
A. baumannii A329 = test: MIC without and with sub-inhibitory polymyxin B (Example 4); assay type: cell-based, Acinetobacter baumannii; details: A. baumannii A329; +0.06 μg/ml PB; 2nd experiment
A. baumannii NCTC 13301 [7] = test: as above; assay type: cell-based, Acinetobacter baumannii
A. baumannii A390 [8] = test: Preliminary MBC without and with sub-inhibitory polymyxin B (Example 4); assay type: cell-based, Acinetobacter baumannii; details: Acinetobacter baumannii, A390, A. baumannii A390, +0.06 μg/ml PB, 2nd experiment, read-out: MBC
Procedure: (§1) The plates were incubated for 18-20 hours at 37° C. The MBC was read as the lowest concentration at which colony growth was ca. 90% less than the positive control (i.e. usually where single colonies or no colonies were observed).

A. baumannii A473 [9] = test: as above; assay type: cell-based, Acinetobacter baumannii; details: Acinetobacter baumannii, A473, A. baumannii A473, +0.06 μg/ml PB, 2nd experiment, read-out: MBC
Procedure: as §1

A. baumannii NCTC 13301 [10] = test: as above; assay type: cell-based, Acinetobacter baumannii; details: Acinetobacter baumannii
Procedure: as §1

A. baumannii A14 [11] = test: as above; assay type: cell-based, Acinetobacter baumannii; details: A. baumannii A14, +0.06 μg/ml PB, 2nd experiment
Procedure: as §1

[12] = test system: Acinetobacter sp. (H064200250); test: MIC without and with sub-inhibitory polymyxin B (Example 4); assay type: cell-based
A. baumannii A473 [13] = test: as above; assay type: cell-based, Acinetobacter baumannii
A. baumannii NCTC 13301 [14] = test: as above; assay type: cell-based, Acinetobacter baumannii; remark: listed apart in the source
A. baumannii A489 [15] = test: Preliminary MBC without and with sub-inhibitory polymyxin B (Example 4); assay type: cell-based, Acinetobacter baumannii; details: Acinetobacter baumannii, preliminary MBC
A. baumannii J2 [16] = test: as above; assay type: cell-based, Acinetobacter baumannii; details: Acinetobacter baumannii, preliminary MBC
[17] = test system: Acinetobacter sp. (H064200250); test: as above; assay type: cell-based; details: Acinetobacter, preliminary MBC
Procedure: as §1

[18] = test system: strains of A. baumannii and one strain of Acinetobacter sp.; test: MIC with sub-inhibitory concentrations (0.25x MIC) of polymyxin B, panel of Acinetobacter strains (Example 4); assay type: cell-based
A. baumannii A489 [19] = test: MIC without and with sub-inhibitory polymyxin B (Example 4); assay type: cell-based, Acinetobacter baumannii; details: for MIC without PB/MIC + PB: A. baumannii A489; for MIC: Acinetobacter baumannii
A. baumannii J2 [20] = test: as above; assay type: cell-based, Acinetobacter baumannii; details: for MIC without PB/MIC + PB: A. baumannii J2; for MIC: Acinetobacter baumannii
[21] = ratio, PB 0.06 μg/ml, 1st experiment

Structure (SMILES): NCC[C@H](O)C(=O)N[C@@H]1C[C@H](N)[C@@H](O[C@H]2O[C@H](CN)[C@@H](O)[C@H](O)[C@H]2O)[C@H](O)[C@H]1O[C@H]1O[C@H](CO)[C@@H](O)[C@H](N)[C@H]1O [Amikacin, reference compound]
- MIC (A. baumannii A14 [1]): 8 µg/mL (≈ 13.7 µM)
- MIC without PB/MIC + PB (A. baumannii A14 [1]): 2
- MIC without PB/MIC + PB (A. baumannii A387; +0.06 μg/ml PB, 2nd experiment): ≥1
- MIC without PB/MIC + PB (A. baumannii A387; [21]): ≥1
- MIC (A. baumannii A387; Acinetobacter baumannii, A387): 128 µg/mL (≈ 219 µM)
- MBC (A. baumannii A472; A472, A. baumannii A472, +[…] PB, 2nd experiment, read-out: MBC): 32 µg/mL (≈ 54.6 µM)
- MBC (A. baumannii A472; A472, read-out: MBC +[…] PB, A. baumannii A472, +[…] polymyxin B, 1st experiment): 32 µg/mL (≈ 54.6 µM)
- MBC +0.06 μg/ml PB (A. baumannii A14 [2]): 16 µg/mL
- MIC without PB/MIC + PB (A. baumannii A390 [3]; A. baumannii A390): ≥2
- MIC (A. baumannii A390 [3]; Acinetobacter baumannii, A390, A. baumannii A390, read-out: MIC): 64 µg/mL (≈ 109 µM)
- MIC +0.06 μg/ml PB (A. baumannii A14 [4]; +0.06 μg/ml polymyxin B): 16 µg/mL
- MIC without PB/MIC + PB (A. baumannii A14 [4]; ratio, PB 0.06 μg/ml): 2
- MIC without PB/MIC + PB (A. baumannii ATCC 19606 [5]; +0.06 μg/ml PB, 2nd experiment): 2
- MIC without PB/MIC + PB (A. baumannii ATCC 19606 [5]; [21]): 2
- MIC (A. baumannii ATCC 19606 [5]; ATCC19606, A. baumannii ATCC 19606, +0.06 μg/ml PB, 2nd experiment, read-out: MIC): 8 µg/mL (≈ 13.7 µM)
- MIC (A. baumannii ATCC 19606 [5]; ATCC19606, read-out: MIC +0.06 μg/ml PB, A. baumannii ATCC 19606, +0.06 μg/ml polymyxin B, 1st experiment): 8 µg/mL
- MBC (A. baumannii ATCC 19606 [6]; ATCC19606, A. baumannii ATCC 19606, +0.06 μg/ml PB, 2nd experiment, read-out: MBC): 8 µg/mL (≈ 13.7 µM)
- MBC (A. baumannii ATCC 19606 [6]; ATCC19606, read-out: MBC +0.06 μg/ml PB, A. baumannii ATCC 19606, +0.06 μg/ml polymyxin B, 1st experiment): 8 µg/mL
- MIC without PB/MIC + PB (A. baumannii A329): 1
- MIC without PB/MIC + PB (A. baumannii NCTC 13301 [7]; A. baumannii NCTC 13301, +[…] PB, 2nd experiment): ≥1
- MIC (A. baumannii NCTC 13301 [7]; Acinetobacter baumannii, NCTC13301): 128 µg/mL (≈ 219 µM)
- MBC (A. baumannii A390 [8]): 64 µg/mL (≈ 109 µM)
- MBC (A. baumannii A473 [9]): 128 µg/mL (≈ 219 µM)
- MBC (A. baumannii NCTC 13301 [10]; NCTC13301, A. baumannii NCTC 13301, +[…] PB, preliminary MBC, 2nd experiment, read-out: MBC): 64 µg/mL (≈ 109 µM)
- MBC (A. baumannii NCTC 13301 [10]; NCTC13301, read-out: MBC +[…] PB): > 128 µg/mL
- MBC (A. baumannii A14 [11]): 8 µg/mL (≈ 13.7 µM)
- MIC without PB/MIC + PB ([12]; Acinetobacter spp. H064200250 (OXA51), +[…] PB, 2nd experiment): 8
- MIC without PB/MIC + PB ([12]; Acinetobacter spp. H064200250, ratio, PB […], 1st experiment): 1
- MIC ([12]; Acinetobacter, Acinetobacter spp. H064200250 (OXA51), +[…] PB, 2nd experiment, read-out: MIC): 1 µg/mL (≈ 1.71 µM)
- MIC without PB/MIC + PB (A. baumannii A473 [13]; A. baumannii A473, +0.06 μg/ml PB, 2nd experiment): ≥1
- MIC (A. baumannii A473 [13]; Acinetobacter baumannii, A473): 128 µg/mL (≈ 219 µM)
- MIC without PB/MIC + PB (A. baumannii NCTC 13301 [14]; A. baumannii NCTC 13301, ratio, PB […], 1st experiment): ≥1
- MIC (A. baumannii NCTC 13301 [14]; Acinetobacter baumannii, NCTC13301, read-out: MIC +[…] PB): > 128 µg/mL
- MBC (A. baumannii A489 [15]; A489, A. baumannii A489, +[…] PB, 2nd experiment, read-out: MBC): 64 µg/mL (≈ 109 µM)
- MBC (A. baumannii A489 [15]; A489, read-out: MBC +[…] PB, A. baumannii A489, +[…] polymyxin B, 1st experiment): 128 µg/mL (≈ 219 µM)
- MBC (A. baumannii J2 [16]; J2, A. baumannii J2, +[…] PB, 2nd experiment, read-out: MBC): 0.5 µg/mL (≈ 0.854 µM)
- MBC (A. baumannii J2 [16]; J2, read-out: MBC +[…] PB, A. baumannii J2, +[…] polymyxin B, 1st experiment): 4 µg/mL (≈ 6.83 µM)
- MBC ([17]; Acinetobacter spp. H064200250 (OXA51), +[…] PB, 2nd experiment, read-out: MBC): 1 µg/mL (≈ 1.71 µM)
- MBC ([17]; read-out: MBC +[…] PB, Acinetobacter spp. H064200250, +[…] polymyxin B, 1st experiment): 64 µg/mL (≈ 109 µM)
- Change of activity (MIC) in presence of polymyxin B compared to without polymyxin B [18]: not significantly affected
- Range ratios MIC without PB/MIC with PB Oct. 14, 2008 n = 11 ([18]; 2nd experiment): 1-16
- MIC without PB/MIC + PB (A. baumannii A489 [19]; +[…] PB, 2nd experiment): ≥2
- MIC without PB/MIC + PB (A. baumannii A489 [19]; ratio, PB […], 1st experiment): ≥1
- MIC (A. baumannii A489 [19]; A489, A. baumannii A489, +[…] PB, 2nd experiment, read-out: MIC): 64 µg/mL (≈ 109 µM)
- MIC (A. baumannii A489 [19]; A489, read-out: MIC +[…] PB, A. baumannii A489, +[…] polymyxin B, 1st experiment): 128 µg/mL (≈ 219 µM)
- MIC without PB/MIC + PB (A. baumannii J2 [20]; +[…] PB, 2nd experiment): 16
- MIC without PB/MIC + PB (A. baumannii J2 [20]; ratio, PB […], 1st experiment): 8
- MIC (A. baumannii J2 [20]; J2, A. baumannii J2, +[…] PB, 2nd experiment, read-out: MIC): 0.5 µg/mL (≈ 0.854 µM)
- MIC (A. baumannii J2 [20]; J2, read-out: MIC +[…] PB, A. baumannii J2, +[…] polymyxin B, 1st experiment): 4 µg/mL (≈ 6.83 µM)
